# Data from patent publication US4717713A, “Controlled release liquid pharmaceutical” (Research Corporation, priority 1983, dated 1988).
# Assay: In vitro dissolution of theophylline from solutions/suspensions (U.S.P. paddle, simulated gastric fluid, 37° C.)
# Format: physicochemical
# Conditions: Table II; 50 R.P.M.; no polymers present
# Description: Standard U.S.P. Teflon coated stainless steel paddles and round bottom glass beakers were employed. The desired stirrer speed was maintained by commercial feedback control circuitry (50 RPM is illustrated by way of example). The dissolution medium was 1000 ml of Simulated Gastric Fluid U.S.P. without enzyme in most cases, kept at 37° C. by a water bath with a heat/circulator unit.
# Suspension was placed into the filled beaker near the surface by 0.27 cm inner radius glass tube attached by plastic tubing to a three ml disposable syringe. Two ml of suspension was pulled up into the tube, the exterior wiped clean, one ml was extruded into the dissolution medium beneath the surface, and the suspension separated from the glass tube by cutting with a razor blade. The technique produced uniform cylindrical matrices in most cases.
# In all cases, the total amount of drug released into the dissolution medium was less than ten percent of that needed to saturate the medium, so that sink conditions were maintained.
# A precise volume was withdrawn near the top of the dissolution medium for each sample. The volume ranged from 0.1 ml to 3.0 ml. […]
# Standard curves were concentrated for theophylline in simulated gastric fluid USP. Samples were diluted to read within the linear concentration range and absorbance was read at 272 nm using a single beam spectrophotometer.
compound,measurement,value
"Cn1c(=O)c2[nH]cnc2n(C)c1=O [Theophylline Powder, theophylline]",T 50% (time for 50% theophylline to dissolve),< 5 min
